Data as given in patent US20110053900A1, “PROGESTERONE ANTAGONISTS SUCH AS CDB-4124 IN THE TREATMENT OF BREAST CANCER” (Repros Therapeutics inc, priority 2008, published 2011).

Experiments:
[1] = Serum progesterone by ELISA; format: in vivo, rat
Protocol: (§1) The animals were assessed three times for their levels of progesterone: initially, when they were about to go on treatment; a second time after 21 days of treatment; and finally after treatment at sacrifice which was 2-4 days after the last s.c. injection. All blood samples were taken by heart puncture; serum was prepared and held frozen at −40° C. The levels of the steroid hormones progesterone, cortisol, and corticosterone were determined by ELISA.
(§2) The concentrations of steroid hormones were determined three times during the study: before the beginning of treatments, after 21 days of treatment and finally after treatment at sacrifice which was 2-4 days after the last s.c. injection. All samples were taken by heart puncture. Serum was obtained and held frozen at −40° C. The levels of steroid hormones were determined by ELISA.

[2] = Estrogenic, androgenic, anti-estrogenic and anti-androgenic activities
[3] = system: rabbit progesterone receptor (rbPR) and glucocorticoid receptor (rbGR); test: Receptor-binding assays, ratio of relative binding affinities rbPR/rbGR; conditions: RBA = EC50 of standard/EC50 of test compound x 100
Protocol: (§3) Certain antiprogestins were tested in receptor-binding assays for their ability to bind rabbit progesterone receptor (rbPR) and glucocorticoid receptor (rbGR). Briefly, cytosol containing PR or GR were prepared in TEGMD buffer (10 mM Tris, pH 7.2, 1.5 mM EDTA, 0.2 mM sodium molybdate, 10% glycerol, 1 mM DTT) from uterus or thymus, respectively, of estradiol-primed immature rabbits. For PR binding, the cytosol was incubated with 6 nM 1,2-[^3H]progesterone (50.0 Ci/mmole) and competitors were added at concentrations from 2 to 100 nM. For binding to GR, the cytosol was incubated with 6 nM 6,7-[^3H]-dexamethasone (40 Ci/mmol) and test compounds were added at concentrations from 20 to 100 nM. After overnight incubation at 4° C., bound and unbound [^3H] steroids were separated by addition of dextran-coated charcoal and centrifugation at 2100×g for 15 min at 4
C. Supernatants containing the [3H]-steroid receptor complexes were decanted into vials containing 4 ml Optifluor (Packard Instrument Co.), vortexed, equilibrated in a liquid scintillation counter for 30 minutes and then counted for 2 minutes. The ECso (Effective Concentration) for each standard curve and each of the compound curves was determined by entering the counting data into a four parameter sigmoidal computer program (RiaSmart® Immunoassay Data Reduction Program, Packard Instrument Co., Meriden, Conn.). Relative binding affinity (RBA) for each compound was calculated using the following equation: EC50 of standard/EC50 of test compound×100. The standards for the PR and GR assays were unlabeled progesterone and dexamethasone, respectively. The results of these experiments are summarized in Table 1, as a ratio of the relative binding affinities of each compound for the rbPR and rbGR receptors (rbPR/rbGR).

[4] = Serum cortisol by ELISA; format: in vivo, rat; conditions: 10 mg/kg, 21 days of dosing
Protocol: as §1, §2

[5] = target: T1, glucocorticoid receptor (rbGR) (Oryctolagus cuniculus, UniProt P59667); test: Glucocorticoid receptor binding; parameters: species or system rabbit
T1 construct: cytosol containing PR or GR were prepared in TEGMD buffer; from tissue; host or cells: thymus of estradiol-primed immature rabbits (cytosol)
T1 sequence (P59667 1-772): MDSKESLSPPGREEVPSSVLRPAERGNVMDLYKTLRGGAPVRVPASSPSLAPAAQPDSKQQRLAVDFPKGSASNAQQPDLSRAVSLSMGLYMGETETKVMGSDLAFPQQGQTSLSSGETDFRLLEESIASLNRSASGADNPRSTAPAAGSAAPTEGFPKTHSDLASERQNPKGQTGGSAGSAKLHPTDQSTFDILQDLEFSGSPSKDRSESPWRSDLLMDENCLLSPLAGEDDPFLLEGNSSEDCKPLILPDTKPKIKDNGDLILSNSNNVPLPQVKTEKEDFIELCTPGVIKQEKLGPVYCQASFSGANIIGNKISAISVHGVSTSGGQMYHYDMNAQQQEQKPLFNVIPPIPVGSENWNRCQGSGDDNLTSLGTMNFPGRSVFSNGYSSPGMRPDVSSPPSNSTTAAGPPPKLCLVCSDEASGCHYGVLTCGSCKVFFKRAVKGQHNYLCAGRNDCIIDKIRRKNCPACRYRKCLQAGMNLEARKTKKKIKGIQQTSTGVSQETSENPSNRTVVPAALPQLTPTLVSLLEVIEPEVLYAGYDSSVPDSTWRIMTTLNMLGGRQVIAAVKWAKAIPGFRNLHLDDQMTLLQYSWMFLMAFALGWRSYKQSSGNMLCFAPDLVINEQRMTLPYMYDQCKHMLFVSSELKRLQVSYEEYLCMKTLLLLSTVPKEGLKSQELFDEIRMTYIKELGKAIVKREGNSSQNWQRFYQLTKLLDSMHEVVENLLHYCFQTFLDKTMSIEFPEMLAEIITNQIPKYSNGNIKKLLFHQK
Protocol: as §3, with “Briefly, cytosol containing PR or GR were prepared in TEGMD buffer (10 mM Tris, pH 7.2, 1.5 mM EDTA, 0.2 mM sodium molybdate, 10% glycerol, 1 mM DTT) from uterus or thymus, respectively, of estradiol-primed immature rabbits.” left out
C. Supernatants containing the [3H]-steroid receptor complexes were decanted into vials containing 4 ml Optifluor (Packard Instrument Co.), vortexed, equilibrated in a liquid scintillation counter for 30 minutes and then counted for 2 minutes. […] The standards for the PR and GR assays were unlabeled progesterone and dexamethasone, respectively.

[6] = Estrogen levels in human females during administration; format: in vivo; conditions: administration periods of at least six months
[7] = system: rabbit uterus; test: Anti-McGinty and anti-Clauberg assays; format: in vivo; conditions: in comparison to RU 486 and CDB-2914
Description: Also given in the Table are the relative biological activities of the same compounds in the rabbit uterus by the anti-McGinty and anti-Clauberg assays. Compound CDB-2914 (listed at the end of the Table) was used as the control or reference compound (rabbit Biological Activity=1.00) for these experiments because results of experiments using CDB-2914 have been published before (Hild-Petito et al., 1996; Passaro et al., 1997; Reel et al., 1998; Lamer et al., 2000). For the anti-McGinty test, immature female rabbits received a subcutaneous injection of 5 μg estradiol in 10% ethanol/sesame oil daily for 6 consecutive days. On day 7, animals underwent sterile abdominal surgery to ligate a 3-4 cm segment of both uterine horns. The test compound in appropriate solvent was injected intraluminally into the ligated segment of one uterine horn and vehicle alone into the other. A stimulating dose of progesterone (267 μg/day) was administered subcutaneously to each rabbit daily for the next three days to induce endometrial proliferation. All animals were sacrificed at day 10 for removal of the uterus where a segment central to the ligatures was removed and fixed in 10% neutral buffered formalin and submitted for histological processing. Five micron sections stained with hematoxylin and cosin were evaluated microscopically for the degree of endometrial glandular proliferation. The percent inhibition of endometrial proliferation for each rabbit was calculated and the mean of the group of five animals recorded. For the Anti-Clauberg test, immature female rabbits received a subcutaneous injection of 5 μg estradiol in 10% ethanol/sesame oil daily for 6 consecutive days. On day 7, animals received progesterone by subcutaneous injection (160 μg/day) and the experimental compound in appropriate vehicle orally or subcutaneously for five consecutive days. One group of rabbits received progesterone only. Twenty-four hours after the last dose, all animals were sacrificed for removal of the uterus which was cleaned of all fat and connective tissue, weighed to the nearest 0.2 mg and placed in 10% neutral buffered formalin for subsequent histological processing. Five micron sections stained with hematoxylin and eosin were evaluated microscopically for the degree of endometrial glandular proliferation. The percent inhibition of endometrial proliferation at each dose level of the test compound was derived by comparison with progesterone-stimulated animals alone. The data presented in Table 1 (rabbit Biol. Act.) reflects the average of the results obtained for each compound by the anti-McGinty and anti-Clauberg assays relative to CDB-2914.

[8] = target: T2, glucocorticoid receptor (Homo sapiens, UniProt P04150); conditions: compared with parent CDB-4124; cited from earlier work
T2 sequence (P04150 1-777): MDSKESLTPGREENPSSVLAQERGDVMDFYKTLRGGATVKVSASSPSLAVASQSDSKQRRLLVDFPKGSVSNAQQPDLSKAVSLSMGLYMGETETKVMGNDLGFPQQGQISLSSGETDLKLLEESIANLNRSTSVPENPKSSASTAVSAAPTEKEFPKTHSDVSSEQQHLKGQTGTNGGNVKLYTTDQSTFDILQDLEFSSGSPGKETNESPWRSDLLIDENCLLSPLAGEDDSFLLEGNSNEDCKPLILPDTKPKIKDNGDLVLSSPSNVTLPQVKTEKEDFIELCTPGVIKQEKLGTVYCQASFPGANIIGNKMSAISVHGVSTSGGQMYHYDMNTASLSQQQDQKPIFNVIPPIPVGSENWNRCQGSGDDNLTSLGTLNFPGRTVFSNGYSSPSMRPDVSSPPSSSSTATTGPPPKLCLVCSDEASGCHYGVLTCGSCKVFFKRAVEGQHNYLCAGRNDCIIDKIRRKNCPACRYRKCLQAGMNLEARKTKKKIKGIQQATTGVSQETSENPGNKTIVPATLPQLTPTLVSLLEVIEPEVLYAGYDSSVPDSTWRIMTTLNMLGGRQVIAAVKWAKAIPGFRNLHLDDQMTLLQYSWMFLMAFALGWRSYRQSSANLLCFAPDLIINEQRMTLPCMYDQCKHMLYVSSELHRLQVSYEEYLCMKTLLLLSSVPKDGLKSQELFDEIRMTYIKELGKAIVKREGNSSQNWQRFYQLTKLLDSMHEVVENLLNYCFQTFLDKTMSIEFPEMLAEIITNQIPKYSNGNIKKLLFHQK

CC(=O)OCC(=O)[C@@]1(OC(C)=O)CCC2C3CCC4=CC(=O)CCC4=C3C(c3ccc(N(C)C)cc3)C[C@@]21C (stereo partly drawn) [CDB-4059, 21-acetoxy-17α-acetoxy-11β-(4 N,N-dimethylaminophenyl)-19-norpregna-4,9-diene-3,20-dione]
serum progesterone versus before treatment (in words) ([1]; 10 mg/kg): did not raise serum progesterone levels | Serum Progesterone, Before TX (mean) ([1]; 10 mg/kg group, before treatment): 57 ng/mL | Serum Progesterone, During TX (mean) ([1]; 10 mg/kg, after 21 days of treatment): 58 ng/mL | Serum Progesterone, After TX (mean) ([1]; 10 mg/kg, at sacrifice 2-4 days after the last s.c. injection): 47 ng/mL | estrogenic, androgenic, anti-estrogenic, and anti-androgenic activities (in words) [2]: lack estrogenic, androgenic, anti-estrogenic, and anti-androgenic activities | rbPR/rbGR (ratio of the relative binding affinities for rbPR and rbGR) [3]: 1.89 | serum cortisol versus control group (in words) [4]: significantly higher levels of serum cortisol | anti-glucocorticoid receptor activity / glucocorticoid receptor binding (in words) [5]: minimal anti-glucocorticoid receptor activity | estrogen levels in human females (in words) [6]: maintain estrogen levels in the normal range | antiprogestin activity in the rabbit uterus (in words) [7]: strong antiprogestin activity

CNc1ccc([C@H]2C[C@@]3(C)[C@@H](CC[C@]3(OC(C)=O)C(=O)COC)[C@@H]3CCC4=CC(=O)CCC4=C32)cc1 [CDB-4453, 21-methoxy-17α-acetoxy-11β-(4-N-methylaminophenyl)-19-norpregna-4,9-diene-3,20-dione]
anti-glucocorticoid activity (in words) [8]: even lower anti-glucocorticoid activity than its parent
